“Also recorded” adds a separate entry of the source.
Key:
[1] = tested on: non-transgenic soybean shoots; assay: Growth response (rooting) of non-transgenic soybean shoots on rooting medium with glufosinate; type: in vivo
Procedure: Growth response studies to varying concentrations of selection agent were conducted using non-transgenic soybean shoots. In this example, glufosinate was used as the exemplary selection agent. Soybean shoots were regenerated from split-seed soybean tissues and cultivated on Shoot Induction medium until shoots had developed and were ready for transfer to rooting medium. Several different concentrations of glufosinate (0, 0.25 mg/L, 0.50 mg/L, 1 mg/L, 2 mg/L, 3 mg/L, 4 mg/L, 5 mg/L, and 6 mg/L) were incorporated into rooting medium (MS salts, B5 vitamins, 28 mg/L ferrous, 38 mg/L Na^2EDTA, 20 g/L sucrose and 0.59 g/L MES, 50 mg/L asparagine, 100 mg/L L-pyroglutamic acid, and 7 g/L NOBLE™ agar, pH 5.6) to determine which concentrations of glufosinate inhibited root development. […] However, 90% and 50% of the soybean shoots cultivated in rooting medium containing glufosinate at concentrations of 0.25 mg/L and 0.5 mg/L, respectively, produced roots. (see Table 1). The effective glufosinate concentration for inhibition of soybean shoot growth and development was determined to be at least 1.0 mg/L of glufosinate. Higher concentrations of glufosinate (e.g., concentrations greater than 1.0 mg/L) were effective in inhibiting root development.

[2] = tested on: transgenic soybean shoots; assay: Root development and yellow fluorescence protein expression of pDAB9381-transformed soybean shoots on rooting medium with glufosinate; type: in vivo, Glycine max
Procedure: The transformed soybean seeds were cultivated using the tissue culture protocol as described in U.S. Filing No. 61/739,349, herein incorporated by reference. Co-cultivation of the soybean plant seeds with an Agrobacterium strain containing the pDAB9381 plasmid was carried out for 5 days on co-cultivation medium covered with a filter paper. After 5 days of incubation on the co-cultivation medium, the explants were washed in liquid Shoot Induction (SI) medium for about 5 to 10 minutes. The explants were then cultured onto Shoot Induction-I (SI-I) medium. The soybean seeds were oriented so the flat side of the soybean seed faced up and the nodal end of the soybean cotyledon was imbedded into the SI-I medium. After 2 weeks of culture at 24° C. with an 18 hour photoperiod, the explants were transferred to the Shoot Induction-II (SI-II) medium supplemented with 6 mg/L glufosinate. After 2 weeks on SI-II medium, the cotyledons were removed from the explants, a flush shoot pad was excised by making a cut at the base of the cotyledon, and the isolated shoot was transferred to the Shoot Elongation (SE) medium. The cultures were transferred to fresh SE medium every two weeks. PETRI™ dishes were not wrapped with filter paper throughout the shoot induction and shoot elongation stages. Lighting sources were provided with an illumination of 80-90 μmoles s-1m-2 for the transformed tissues during shoot induction and shoot elongation.
The elongated shoots were dipped in 1 mg/L indole 3-butyric acid (IBA) for about 1 to 3 minutes to promote rooting prior to transferring of the isolated shoots to rooting medium (MS salts, B5 vitamins, 28 mg/L ferrous, 38 mg/L Na^2EDTA, 20 g/L sucrose and 0.59 g/L MES, 50 mg/L asparagine, 100 mg/L L-pyroglutamic acid, and 7 g/L NOBLE™ agar, pH 5.6) in phyta trays. A selection agent of glufosinate at a concentration of 1 mg/L was incorporated into the rooting medium for a subset of the transformation experiments.
Following culturing in the rooting medium at 24° C., with an 18 hour photoperiod, for 1-2 weeks, the soybean shoots that produced healthy, viable roots were transferred to soil. The soybean shoots comprising healthy, viable roots were placed in soil which was contained in an open plastic sundae cup. The plastic sundae cups containing the transferred soybean shoots comprising roots were placed in a CONVIRON™ for acclimatization of soybean plantlets. The rooted soybean plantlets were acclimated in the open sundae cups for several weeks before the plantlets were transferred to the greenhouse.
Incorporation of a section agent comprising glufosinate in soybean tissue culture rooting medium was tested to reduce the formation of non-germline, chimeric soybean transformation events and escapes. Following Agrobacterium-mediated transformation of soybean (cv. Maverick) with the binary vector, pDAB9381, soybean shoots were regenerated and cultured onto rooting medium that contained a selection agent comprising glufosinate. After root development was initiated on the rooting media comprising glufosinate, the roots were tested for transgene expression (yellow fluorescence protein).
A total of 531 transgenic soybean shoots were produced using the transformation method described above and transferred onto rooting medium containing the selection agent glufosinate. […] (see Table 2). A correlation was observed between yellow fluorescence protein transgene expression and viable, white root formation, wherein a significant majority of the viable, white roots expressed the yellow fluorescence protein transgene in root tissues. (see FIG. 2, FIG. 3, and FIG. 5). Microscopy results confirmed that about 92% of the soybean plants produced from rooting medium comprising a selection agent were transgenic as these soybean plants expressed the yellow fluorescence protein transgene. (see FIG. 2, FIG. 3, and FIG. 5).

[3] = tested on: transgenic soybean events; assay: Heritability analysis of transgenic soybean events produced on rooting medium comprising glufosinate (T1 plants sprayed with glufosinate); type: in vivo
Text: A total of 153 transgenic soybean events were isolated and grown to maturity. These soybean events were self-fertilized to produce seed that was obtained and analyzed for heritability. All of the 153 transgenic soybean events were confirmed to contain the yellow fluorescent protein and phosphinothricin acetyltransferase transgenes via molecular analysis in the parental T0 soybean plants. For each of the 153 transgenic soybean events, 15 seeds were obtained and germinated in soil under conventional green house conditions. The transgenic soybean plants were grown to the V1 stage of development and were sprayed with 411 g ae/ha glufosinate, which was used as the exemplary selection agent in this example. After treatment with glufosinate, the soybean plants were observed and graded as resistant or susceptible to glufosinate. The transgenic soybean events that produced at least one T1 seedling were determined to be a heritable event.

[4] = tested on: soybean shoots; assay: Rooting medium selection of aad-12 transformed soybean shoots with 2,4-D; type: in vivo, soybean (cv. Maverick); conditions: aad-12 transgene; rooting medium with 2,4-D about 2 to 120 mg/L
Procedure: Transformed soybean seed can be cultivated using a modified tissue culture protocol as described in U.S. Filing No. 61/739,349, herein incorporated by reference, wherein the selective agent is 2,4-D. Co-cultivation of the soybean plant seeds with Agrobacterium, can be carried out for 5 days on co-cultivation medium covered with a filter paper. After 5 days of incubation on the co-cultivation medium, the explants can be washed in liquid Shoot Induction (SI) medium for about 5 to 10 minutes. The explants can then be cultured onto Shoot Induction-I (SI-I) medium. The soybean seeds are oriented so the flat side of the soybean seed face up and the nodal end of the soybean cotyledon is imbedded into the SI-I medium. After 2 weeks of culture at 24° C. with an 18 hour photoperiod, the explants can be transferred to the Shoot Induction-II (SI-II) medium supplemented with 2 to 120 mg/L 2,4-D. After 2 weeks on SI-II medium, the cotyledons can be removed from the explants, wherein a flush shoot pad is excised by making a cut at the base of the cotyledon, and the isolated shoot is transferred to the Shoot Elongation (SE) medium. The cultures can be transferred to fresh SE medium every two weeks. PETRI™ dishes may not be wrapped with filter paper throughout the shoot induction and shoot elongation stages. […]

[5] = glufosinate 1 mg/L in rooting medium, 531 plants
[6] = root tissues, glufosinate 1 mg/L in rooting medium, 531 plants
[7] = rooting medium comprising glufosinate (1 mg/L)
[8] = Brown/Black Roots on glufosinate rooting medium, 76 events
[9] = Total, 153 T1 events, T1 sprayed with 411 g ae/ha glufosinate
[10] = White Roots on glufosinate rooting medium, 77 events
[11] = glufosinate at least 1 mg/L in rooting medium

CP(=O)(O)CCC(N)C(=O)O (racemic) [glufosinate, DL-phosphinothricin]
Percentage of Shoots that Produced Roots ([1]; glufosinate 0.25 mg/L in rooting medium): 90%
Number of Shoots Producing Roots ([1]; glufosinate 0.25 mg/L, 10 shoots cultivated): 9
Percentage of Shoots that Produced Roots ([1]; glufosinate 0.5 mg/L in rooting medium): 50%
Number of Shoots Producing Roots ([1]; glufosinate 0.5 mg/L, 10 shoots cultivated): 5
Percentage of Shoots that Produced Roots ([1]; glufosinate 1.0 mg/L in rooting medium): 0%
Number of Shoots Producing Roots ([1]; glufosinate 1.0 mg/L, 30 shoots cultivated): 0
Percentage of Shoots that Produced Roots ([1]; glufosinate 2.0 mg/L in rooting medium): 0%
Number of Shoots Producing Roots ([1]; glufosinate 2.0 mg/L, 30 shoots cultivated): 0
Percentage of Shoots that Produced Roots ([1]; glufosinate 3.0 mg/L in rooting medium): 0%
Number of Shoots Producing Roots ([1]; glufosinate 3.0 mg/L, 30 shoots cultivated): 0
Percentage of Shoots that Produced Roots ([1]; glufosinate 4.0 mg/L in rooting medium): 0%
Number of Shoots Producing Roots ([1]; glufosinate 4.0 mg/L, 25 shoots cultivated): 0
Percentage of Shoots that Produced Roots ([1]; glufosinate 5.0 mg/L in rooting medium): 0%
Number of Shoots Producing Roots ([1]; glufosinate 5.0 mg/L, 25 shoots cultivated): 0
Percentage of Shoots that Produced Roots ([1]; glufosinate 6.0 mg/L in rooting medium): 0%
Number of Shoots Producing Roots ([1]; glufosinate 6.0 mg/L, 25 shoots cultivated): 0
root formation of soybean shoots ([1]; rooting media supplemented with 1 to 6 mg/L glufosinate): no root formation was observed
effective glufosinate concentration for inhibition of soybean shoot growth and development ([1]; rooting medium, non-transgenic shoots): at least 1.0 mg/L
Number of Plants with Unhealthy, Brown/Black Roots [2, 5]: 212
Number of Plants with Viable, White Roots [2, 5]: 319
Plants with Unhealthy, Brown/Black Roots (%) [2, 5]: 40%
Plants with Viable, White Roots (%) [2, 5]: 60%
soybean plants produced from rooting medium comprising a selection agent that were transgenic (expressed the yellow fluorescence protein transgene) ([2]; microscopy, shoots with viable, white roots): about 92%
Number of Plants with YFP Expression [2, 6]: 271
Number of Plants with no YFP Expression [2, 6]: 260
Plants with YFP Expression (%) [2, 6]: 51%
Plants with no YFP Expression (%) [2, 6]: 49%
root phenotype of germline transformants [2, 7]: produce healthy, viable roots; also recorded: healthy viable roots were produced
root phenotype of non-germline or chimeric transformants [2, 7]: either do not form roots or develop brown/black roots; also recorded: do not produce viable roots; also recorded: (1) no roots were produced; (2) roots were produced and turned brown; and, (3) roots were produced and turned black
Percentage of heritable events [3, 8]: 7%
Percentage of non-heritable events [3, 8]: 93%
Percentage of heritable events [3, 9]: 48%
Percentage of non-heritable events [3, 9]: 52%
Percentage of heritable events [3, 10]: 90%
Percentage of non-heritable events [3, 10]: 10%
advanced events with viable, healthy roots confirmed to be germline soybean transformants [3, 11]: about 90%
non-germline (chimeric) events eliminated based on root phenotype (brown/black roots or no root development) [3, 11]: about 93%

O=C(O)COc1ccc(Cl)cc1Cl [2,4-D, 2,4-dichlorophenoxyacetic acid]
transgene expression in viable, white roots [4]: a significant majority of the viable, white roots express the transgene in root tissues
